No end group written: not given here.
Assays:
Beas-2B cells [1] = experiment: Cell-surface HS / CS after enzyme treatment (anti-HS or anti-CS antibody, flow cytometry); assay type: cell-based; conditions: 10 U/ml chondroitinase ABC, 2 h, anti-CS monoclonal antibody, untreated cells 100%, n = 3
Procedure: (§1) Figure 3 HS-dependent ECP^32–-41 internalization. […] (B) Samples of wild-type and mutant CHO cells were each incubated with 5 µM FITC-ECP^32–41 at 37°C for 1 h and then subjected to flow cytometry. (C) Samples of wild-type and mutant CHO cells were incubated with 5 µM FITC-ECP^32–41 at 37°C for 1 h., then washed twice with 1 ml PBS, and fixed for CLSM. Nuclei were stained with Hoechst 34850. Scale bar: 20 µm. (D) Beas-2B cells were treated with heparinase I, heparinase III, or chondroitinase ABC for 2 h prior to incubation with 5 µM FITC-ECP^32–41 at 37°C for 1 h. […] Untreated cells served as the controls. The fluorescence of cells treated with FITC-ECP^32–41 was set to 100%. […] (E) Beas-2B cells were treated with heparinase I, heparinase III, or chondroitinase ABC for 2 h. […] Untreated cells served as the control. The fluorescence of the untreated cells was set to 100%.
To verify that selective cell-surface polysaccharides had been enzymatically removed, the treated cells were subsequently incubated with anti-HS or anti-CS monoclonal antibodies. As expected, heparinase I and heparinase III had decreased the amount of HS on Beas-2B cell surfaces by 48% and 61%, respectively (Figure 3E, left panel), and chondroitinase ABC removed 72% of the cell-surface CS (Figure 3E, right panel). The HS that remained on Beas-2B cell surface accounted for the observed ECP^32–41 internalization into heparinase-treated cells. Conversely, even though 70% of the initial cell-surface CS had been removed, ECP^32–41 internalization was hardly affected–thus as concluded above, HS, rather than CS, is responsible for ECP^32–41 internalization.
Beas-2B cells (3.0×10^5/well) were incubated with RPMI 1640 medium overnight in six-well plates and then treated with 5 U/ml of heparinase I, 2.4 U/ml of heparinase III, or 10 U/ml of chondroitinase ABC (Sigma-Aldrich) at 37°C for 2 h. After a PBS wash, the cells were incubated with FITC-ECP^32–41 and assayed for internalization of the peptide by flow cytometry as described above.

Beas-2B cells [2] = experiment: Cell viability assay (MTT)
Procedure: Beas-2B cells were grown in serum-free medium in the presence of ECP^32–41 at indicated concentrations for 24 h. (A) The cytotoxic effect of ECP^32–41 was measured by MTT assay. The cell viability of untreated cells was set to 100%. Cells treated with 0.1% Triton X-100 was used as a positive control. (B) The membrane disruption by ECP^32–41 was measured by LDH assay. LDH released from cells lysed with 0.1% Triton X-100 in medium was defined as 100% leakage and LDH released from untreated cells was set as 0% leakage.
Beas-2B cells were incubated with 10 µM eGFP or eGFP-ECP^32–41 at 37°C for 1 h. The cells were then washed with 500 µl PBS, trypsinized at 37°C for 15 min, suspended in 500 µl PBS, and subjected to flow cytometry. (B) Beas-2B cells were treated with the indicated concentrations of TAT^47–57, ECP^32–41, KLA, KLA-TAT^47–57 or KLA-ECP^32–41 at 37°C for 24 h, and their cytotoxic effects were determined by the MTT assay. Cytotoxic effects of (C) KLA-TAT^47–57 and (D) KLA-ECP^32–41, at the indicated concentrations, on Beas-2B, A549, Caco-2, and AGS cells were assessed by the MTT assay after incubation at 37°C for 24 h. The cell viability untreated cells was set to 100%. The result is expressed as the mean ± S.D., n = 3.
The effects of the peptides on cell viability were determined colourimetrically using 3-(4,5-dimethylthiazol-2-yl)-2,5-diphenyltetrazolium bromide (MTT) (US Biological). Cells (1.0×10^4/well) were seeded into the wells of 96-well plates and incubated overnight. Cell samples were then exposed to different concentrations of TAT^47–57, ECP^32–41, KLA, KLA-TAT^47–57 or KLA-ECP^32–41. After 24 h, 100 µl of 0.5 mg/ml MTT in medium was added into each well, and the cells were incubated at 37°C for 3 h. The incubation medium was removed, and the remaining purple crystal formazan was dissolved in dimethylsulphoxide. Cells treated with 0.1% Triton X-100 was used as a positive control for cell viability. A540 values were measured using a multiwall plate reader (Molecular Devices).

Beas-2B cells [3] = experiment: Confocal laser-scanning microscopy (CLSM) of FITC-peptide internalization; assay type: cell-based; conditions: 5 µM peptide, 37°C, 5 and 60 min
Procedure: (§2) Figure 1 Internalization of ECP^32–41 and EDN^32–41. (A) Beas-2B cells were incubated with 1, 5, 10, or 20 µM FITC-ECP^32–41, FITC-EDN^32–41, or FITC at 37°C for 1 h. […] (B) Beas-2B cells were incubated with 5 µM FITC-ECP^32–41, FITC-EDN^32–41, or FITC at 37°C for 5, 10, 30, or 60 min. The cells were then treated as described in (A) and subjected to flow cytometry. The results in (A) and (B) are expressed as the mean ± standard deviation (S.D.), n = 3. (C) Beas-2B cells were incubated with 5 µM FITC-ECP^32–41, FITC-EDN^32–41, or FITC at 37°C for 5 or 60 min before CLSM. Nuclei were stained with Hoechst 34850. Scale bar: 20 µm.
Cells were cultured on coverslips (1.0×10^4/coverslip) in indicated medium. After 24 h, cell samples were each incubated at 37°C for 1 h with an FITC-peptide. The cells were then washed twice with PBS, fixed with 2% (w/v) paraformaldehyde and incubated, first in PBS for 15 min, then with 50 mM NH4Cl in PBS for 10 min, and finally permeabilised with 0.5% (v/v) Triton-X-100 at 25°C for 5 min. Nuclei were stained with Hoechst 33342 Fluorescent Stain, (Sigma-Aldrich) during the final 5 min of incubation. Cells were then washed twice with 0.05% Triton-X-100, once with PBS, and the coverslips were mounted in a Vectashield anti-fade mounting medium (Vector Labs). […]

Beas-2B cells [4] = experiment: Cell-based ELISA: binding of FITC-peptides to Beas-2B cells; conditions: 5 µM FITC-peptides, 4°C, 1 h, washed twice with PBS, cell-based ELISA (FITC fluorescence), FITC-ECP32–41 bound normalized to 100%, mean ± S.D., n = 4
Procedure: Cells (2×10^4/well) were seeded into 96-well black plate and incubated under a 5% CO2 atmosphere at 37°C for 24 h. Each well was then washed with 150 µl ice-cold PBS. To prevent non-specific antibody binding, BSA was used as a blocking agent, and PBS containing 2% (w/v) BSA was added to each well at 4°C and incubated for 1 h. The wells were then washed with 100 µl ice-cold PBS. FITC-conjugated peptides were diluted to 10, 20, or 100 µM in PBS and then, medium (95 µl) and a peptide/PBS solution (5 µl) were gently mixed, added into a well, and the plate was placed on ice for 1 h. Each well was then washed with 100 µl PBS and the FITC fluorescent intensity for each sample was measured using a fluorescence spectrophotometer (Wallac Victor II, Perkin Elmer, USA) and excitation and emission wavelengths of 485 nm and 521 nm respectively.

CHO-K1 cells = experiment: Internalization into wild-type CHO cells (flow cytometry and CLSM); assay type: cell-based, Chinese hamster; conditions: 5 µM FITC-ECP32–41, 37°C, 1 h
Procedure: as §1
(§3) Cells (3.0×10^5/well) were added into six-well plates and cultured in the indicated medium. After 24 h, each FITC-peptide, dissolved in medium, was added into a well and the samples incubated for 1 h. Cells were then harvested, washed, and suspended in PBS. The fluorescent intensities of the cell samples were measured using a FACSCalibur flow cytometer (BD Biosciences, Franklin Lakes, NJ) and excitation and emission wavelengths of 488 nm and 515–545 nm respectively. […]

Beas-2B cells [5] = experiment: Internalization after heparinase / chondroitinase ABC depletion of GAGs; assay type: cell-based; conditions: 10 U/ml chondroitinase ABC, 37°C, 2 h, then 5 µM FITC-ECP32–41, 37°C, 1 h; flow cytometry; n = 3
Procedure: as §1, §3

CHO-pgsA745 cells = experiment: Cell-based ELISA: binding to GAG-deficient CHO cells; design: species or system Chinese hamster; conditions: CHO-pgsA745 cells (no GAG), 5 µM FITC-ECP32–41, 4°C, 1 h, CHO-K1 normalized to 100%, n = 3
Procedure: (§4) Cell-membrane GAGs including HS, CS/DS, and HA are necessary for CPP internalization, [6]. To assess the effect of GAGs on ECP^32–41 cellular binding ability, soluble GAGs including LMWH, CSC, and HA were used as competitors to inhibit the attachment of ECP^32–41 to Beas-2B cells. […] To clarify the roles of cell-surface HS and CS, the binding of ECP^32–41 to wild-type and two mutant strains of Chinese hamster ovary (CHO) cells was assessed by ELISA. […] CHO-pgsA745 cells are deficient in xylosyltransferase so that no GAG was present on the surface. […] GAGs, and especially HSPGs, are therefore crucial for the initial interaction of ECP^32–41 with cell surfaces.
(§5) Figure 2 Cell-surface GAG-dependent binding of ECP^32–41. […] After washed twice with PBS, cells were subjected to ELISA. […] (B) CHO cells were incubated with 5 µM FITC-ECP^32–41 at 4°C for 1 h, washed twice with PBS, and subjected to ELISA. The amount of FITC-ECP^32–41 bound to CHO-K1 cells was normalized to 100%.
(§6) Cells (2×10^4/well) were seeded into 96-well black plate and incubated under a 5% CO2 atmosphere at 37°C for 24 h. Each well was then washed with 150 µl ice-cold PBS. […] Each well was then washed with 100 µl PBS and the FITC fluorescent intensity for each sample was measured using a fluorescence spectrophotometer (Wallac Victor II, Perkin Elmer, USA) and excitation and emission wavelengths of 485 nm and 521 nm respectively.

Beas-2B cells [6] = experiment: Flow cytometry: internalization of FITC-peptides into Beas-2B cells; assay type: cell-based; conditions: 5 µM FITC-peptides, 37°C, 1 h, washed, trypsinized 37°C 15 min, cells treated with ECP32–41 set as 100%, mean ± S.D., n = 4
Procedure: Internalization of FITC-ECP^32–41 and FITC-EDN^32–41 was measured as the median ﬂuorescence intensity (MFI) of 6.0×10^5 Beas-2B cells that had been treated with one of the FITC-labelled peptides (1 to 20 µM) at 37°C for 1 h, and then treated with trypsin to remove surface-bound peptides. […] When Beas-2B cells were treated with 5 µM of a FITC-peptide at 37°C, the fluorescent signal for FITC-ECP^32–41 increased within 5 min, and reached plateau at 30 min (Figure 1B).
as §2
Cells (3.0×10^5/well) were added into six-well plates and cultured in the indicated medium. […] The fluorescent intensities of the cell samples were measured using a FACSCalibur flow cytometer (BD Biosciences, Franklin Lakes, NJ) and excitation and emission wavelengths of 488 nm and 515–545 nm respectively. […]

CHO pgsD-677 cells = experiment: Internalization into HS-deficient CHO cells (flow cytometry and CLSM); assay type: cell-based, Chinese hamster; conditions: CHO pgsD677 cells, 5 µM FITC-ECP32–41, 37°C, 1 h
Procedure: as §1, §3

[7] = Circular dichroism spectroscopy; assay type: physicochemical; conditions: data not shown
Beas-2B cells [8] = experiment: Membrane disruption assay (LDH leakage); assay type: cell-based; conditions: up to 100 µM, 37°C, 24 h, 0.1% Triton X-100 = 100% leakage, P>0.05, n = 3
Procedure: Lactate dehydrogenase (LDH) was used to quantify membrane disruption. The release of LDH from cells was measured by Promega CytoTox-ONE assay (Promega, USA). […] Cell samples were then exposed to different concentrations of ECP^32–41. After 24 h, 100 µl of extracellular medium was transferred to a black 96-well plate containing 100 µl of CytoTox-ONE reagent, incubated at RT for 10 min. Fluorescent intensity for each sample was measured using a fluorescence spectrophotometer (Wallac Victor II, Perkin Elmer, USA) and excitation and emission wavelengths of 540 nm and 590 nm respectively.

CHO-pgsD677 cells = experiment: Cell-based ELISA: binding to HS-deficient CHO cells; design: species or system Chinese hamster; conditions: CHO-pgsD677 cells (lack HS), 5 µM FITC-ECP32–41, 4°C, 1 h, CHO-K1 normalized to 100%, n = 3
Procedure: as §4, §5, §6

CHO pgsA-745 cells = experiment: Internalization into GAG-deficient CHO cells (flow cytometry and CLSM); assay type: cell-based, Chinese hamster; conditions: CHO pgsA745 cells, 5 µM FITC-ECP32–41, 37°C, 1 h
Procedure: as §1, §3

Caco-2 cells = experiment: Cell viability assay (MTT); assay type: cell-based, human; conditions: 24 h
From the text: (§7) The cell viability untreated cells was set to 100%.

AGS cells = experiment: Cell viability assay (MTT); assay type: cell-based, human; conditions: 24 h
From the text: as §7

For chondroitinase ABC, the “cell-surface CS removed” value (Beas-2B cells [1]) was 72%.
For KLAKLAKKLAKLAK, the “cytotoxicity (MTT)” value (Beas-2B cells [2]) was “not cytotoxic”.
In the case of NYRWRCKNQN [ECP^32–41], the “intracellular fluorescence by CLSM” value (Beas-2B cells [3]) is reported as “clearly detected”, the “Binding (%)” value (Beas-2B cells [4]) is reported as 100% and the “internalization monitored by CLSM” value (CHO-K1 cells) is reported as “clearly observed for CHO-K1 cells”. For the same substance, the “effect of CS depletion (chondroitinase ABC) on internalization” value (Beas-2B cells [5]) was “little effect”, the “reduction of binding versus CHO-K1 cells” value (CHO-pgsA745 cells) was 52% and the “Penetrating (%)” value (Beas-2B cells [6]) was 100%. For the same substance, the “internalization monitored by CLSM” value (CHO pgsD-677 cells) was “but not for CHO pgsD677 or pgsA745 cells”, the “secondary structure by circular dichroism spectroscopy” value [7] was “random coil” and the “LDH levels (membrane disruption), treated versus untreated cells” value (Beas-2B cells [8]) was “no significant changes”. The “reduction of binding versus CHO-K1 cells” value (CHO-pgsD677 cells) was 31%, the “internalization monitored by CLSM” value (CHO pgsA-745 cells) was “but not for CHO pgsD677 or pgsA745 cells” and the “cell viability (MTT) at 100 µM” value (Beas-2B cells [2]) was “neither peptide affected cell viability”.
For “KLAKLAKKLAKLAKNYRWRCKNQN [KLA-ECP^32–41]”, the “EC50 fold higher than that of KLA-TAT47–57” value (Caco-2 cells) was 1.6 fold and the “EC50 fold higher than that of KLA-TAT47–57” value (AGS cells) was 2.42 fold.
